According to patent US10472352B2, “Rac inhibitors” (Geneyus LLC, priority 2017, dated 2019):

Experiments:
[1] = test system: MCF-7 human breast cancer cell line; test: Cell Viability Assay (MCF7), PrestoBlue; format: cell-based; details: MCF7, 72 h, MCF-7 cells, three days after drug treatment
Method: In order to determine a compound's effect on cell viability, PrestoBlue assays were performed as previously described by Kuhn et al. (2013) with modifications. MCF-7 human breast cancer and IGR-1 human melanoma cell lines were seeded into 96-well plates 24 hours prior to addition of drug. Cells were treated with 0 to 200 μM (11 concentrations) of compound solubilized in DMSO, adjusting the final concentration of DMSO to 1% in the well. Three days after drug treatment, cell viability was measured by adding PrestoBlue (Life Technologies Ltd.; cat. No. A13262) reagent directly to wells containing media/drug to reach a final concentration of 10%. PrestoBlue is a modified molecule of the common Alamar Blue probe used to determine viability based on the ability of a cell to metabolize a nonfluorescent compound (resazurin) to a florescent molecule (resorufin). Following a 1 hour incubation period, total well fluorescence was measured using the microplate reader M1000 pro (Tecan) with excitation 560-5 nm and emission 590-5 nm. […] The percentage of living cells was then computed by comparison with control wells. Kuhn, Jonas et al., Assay and Drug Development Technologies, March 2013, Label-Free Cytotoxicity Screening Assay by Digital Holographic Microscopy.

[2] = test system: HUVECs; test: Cell Migration Assay (Boyden chamber); format: cell-based; details: 5 uM
Method: An essential characteristic of malignant cells is their ability to migrate, invade host tissues and to produce metastases. In order to evaluate the capacity of one compound to affect the ability of tumoral cells to migrate, migration assays were performed using HUVEC cells.
HUVECs (2.5×10^4) were seeded onto uncoated filters in a 24-well transwell Boyden chamber ([…]; Costar) and allowed to migrate in the presence and absence of different doses of the Rac1 inhibitor 0032253 (5, 6.25, 10, 12.5, 20, 25 μM). The cells that migrated to the underside of the filter were stained with crystal violet and counted under the bright field microscopy.

[3] = test system: WM1158 cells; test: Western Blot Analysis of phosphorylated AKT, MEK1/2, ERK1/2; format: cell-based; details: increasing concentrations, two hours, vs DMSO control
Excerpt: Western blot analysis is used to identify specific proteins from a complex mixture of proteins extracted from cells. Equal amount of protein is run on the SDS-PAGE gel and after separating the protein mixture, it is transferred to a membrane. The transferred protein is then probed with a combination of antibodies: one antibody specific to the protein of interest (primary antibody) and another antibody specific to the host species of the primary antibody (secondary antibody). The secondary antibody is complexed with an enzyme, which when combined with an appropriate substrate, will produce a detectable signal.
WM1158 cells were treated with increasing concentrations of 0032253 for two hours. SDS-PAGE was conducted on cell lysates and Western Blot analysis was conducted on samples for total and phosphorylated AKT, MEK1/2, and ERK1/2.

[4] = molecular target: His-Rac1 / GST-PBD (PAK Binding Domain) (Homo sapiens, UniProt P63000); test: Rac Activation AlphaScreen Assay (Rac1 AS); format: biochemical; details: 500 nM GTPγS, 37° C., 1 hour; 'positive' = signal generated was higher than the positive control
Method: AlphaScreen® assays were performed in 96-well microplates in a final reaction volume of 60 μl. Recombinant His-Rac1, recombinant GST-PBD (PAK Binding Domain), donor and acceptor beads (PerkinElmer), and inhibitors were incubated in exchange buffer (20 mM Tris pH 7.5, 50 mM NaCl, 1 mM MgCl2, 1 mM EDTA, 500 nM GTPγS (guanosine 5′-[γ-thio]triphosphate)) at 37° C. Readings were performed on a Tecan M1000 pro microplate reader after 1 hour.

[5] = molecular target: T1, Rac1 protein (Homo sapiens, UniProt P63000); test: Fluorescence Polarization Assay (Rac1 FP); format: binding; details: 125 nM his-tagged Rac1, 12.5 nM Bodipy-TR GTPγS, 30 minutes at 37° C.
T1 construct: purchased Cytoskeleton Inc. RC01
Method: Direct binding of Rac1 compound inhibitors to Rac1 protein was performed using fluorescence polarization (FP). Briefly, Rac1 inhibitors were initially dissolved in DMSO and then serial drug dilutions in exchange buffer (20 mM Tris pH 7.5, 50 mM NaCl, 1 mM MgCl, 1 mM EDTA) were prepared in a flat black 96-well half-area plate (Greiner). Recombinant his-tagged Rac1 protein (Cytoskeleton Inc. Cat. # RC01) was added to the inhibitors at a final concentration of 125 nM along with 12.5 nM Bodipy-TR GTPγS (Life Technologies Inc. Cat. # G35780) in exchange buffer and incubated for 30 minutes at 37° C. in exchange buffer. After 30 minutes of incubation. FP was measured on the M1000 Pro (Tecan) fluorescent plate reader with 590 nm±5 nm excitation and 625 nm±5 nm emission spectra settings.

[6] = test system: HUVECs; test: Cellular Proliferation Assay; format: cell-based; details: 25 uM, cells counted day 0 through day 4
Method: 25,000 cells were seeded in 6-well plates. The next day, vehicle (DMSO) or 25 μM 0032253 was added to cells (Day 0). Cells were counted on days 0 through day 4 using a hemocytometer.

[7] = test system: HUVECs; test: HUVEC Tube Formation Assay; format: cell-based; details: doses above 6.25 μM, 8 h, Matrigel
Method: The endothelial cell tube formation assay is an in vitro assay that is widely accepted to accurately reflect number of terminal stages of the angiogenic process such as attachment, migration and differentiation into tubular structures. In this model, endothelial cells are cultured on a monolayer of reconstituted basement membrane components (Matrigel) and form, in a few hours, capillary-like structure. Therefore, this system is a useful and powerful tool for rapidly screening anti-angiogenic agents by monitoring inhibition of endothelial cells morphogenesis on extracellular matrix.
HUVECs (5×10^3) were seeded on top of Matrigel in a 24-well plate. The cells were treated either with DMSO or different concentrations of the Rac1 inhibitor 0032253 (5, 6.25, 10, 12.5 μM) for 8 h in triplicate. The plates were scanned by LICOR Odyssey Imaging system.

IC50 [1]: 4.38 µM
Rac1 AS IC50(uM) [4]: positive
IC50 [5]: 3.42 µM
SMILES: FC(F)(F)c1ccc2c(SCCCCCCn3cc(CN4CCOCC4)nn3)ccnc2c1 (racemic) [Compound 0032253, 4-({6-[4-(morpholin-4-ylmethyl)-1H-1,2,3-triazol-1-yl]hexyl}sulfanyl)-7-(trifluoromethyl)quinoline]
HUVEC migration through a Boyden Chamber [2]: impairs the ability of HUVECs to migrate through a Boyden Chamber
expression of phosphorylated AKT [3]: reduced as compared to DMSO control
expression of phosphorylated ERK1/2 [3]: reduced as compared to DMSO control
expression of phosphorylated MEK1/2 [3]: reduced as compared to DMSO control
HUVEC proliferation [6]: completely inhibits the ability of HUVECs to proliferate
HUVEC tube formation [7]: significantly reduce the ability of HUVECs to form tube like structures
